Data as given in the OPERA property sets (Mansouri et al. 2018).

Conditions: for log10 BCF / log10 biotransformation half-life (days): fish

| Compound | boiling point | melting point | other results |
| --- | --- | --- | --- |
| O=[N+]([O-])c1ccc(Cl)c([N+](=O)[O-])c1 | 315 °C | 53 °C | log10 vapour pressure (mmHg): -4.07; ready biodegradability: not readily biodegradable |
| CC(C)CCC(C)C(C)C (configuration not stated) | 156 °C |  |  |
| C1=CCSC1 | 122 °C |  |  |
| Oc1ccc2ccccc2c1-c1c(O)ccc2ccccc12 |  | 216 °C |  |
| O=C(O)COc1ccccc1C(=O)O |  | 191 °C |  |
| O=[N+]([O-])OCC(CCl)O[N+](=O)[O-] (configuration not stated) | 192 °C |  |  |
| O=C1OC(=O)c2cccc3cccc1c23 |  | 270 °C |  |
| Cc1ccc(Br)cc1N |  | 33 °C |  |
| FC(F)(F)C(F)(F)C(F)(F)C(F)(F)C(F)(F)C(F)(F)C(F)(F)C(F)(F)C(F)(F)I | 181 °C |  |  |
| CCCC=Cc1ccccc1 | 217 °C |  |  |
| Cc1cccc(CC#N)c1 | 248 °C |  |  |
| CC1CN(C)CCN1C (configuration not stated) | 150 °C |  |  |
| O=C(Cl)c1ccccc1O |  | 19 °C |  |
| CCCCNc1ccccc1 | 244 °C | -14.4 °C |  |
| CCCc1ssc(=S)c1C |  | 49 °C |  |
| CCCCCCCCCc1ccc(OP(=O)(Oc2ccccc2)Oc2ccccc2)cc1 | 471 °C |  | log10 Henry constant (atm·m³/mol): -7.85; log10 Koc (L/kg): 4.06 |
| CCCCCCOC(=O)CCCCC(=O)OCCCCCC |  |  | log10 vapour pressure (mmHg): -5.54 |
| OCCOc1ccccc1 | 245 °C | 14 °C | log10 vapour pressure (mmHg): -2.15 |
| Oc1cc(Cl)cc(Br)c1 | 256 °C | 70 °C |  |
| FCI | 53.4 °C |  |  |
| Clc1ccc(Br)s1 |  | -20 °C |  |
| C1CCC2CCCCC2C1 (configuration not stated) | 180 °C | -38.7 °C | log10 Koc (L/kg): 3.67; log10 vapour pressure (mmHg): 0.114; ready biodegradability: not readily biodegradable; log10 BCF: 3.25 |
| Oc1cc(O)c(Cl)cc1Cl | 254 °C | 113 °C |  |

| Compound | boiling point | melting point | other results |
| --- | --- | --- | --- |
| C1OCOCO1 | 114 °C | 60.2 °C | log10 vapour pressure (mmHg): 1.24 |
| O=c1ccoc2ccccc12 |  | 59 °C |  |
| CCC(CC)C(CC)CC | 164 °C |  |  |
| O=C(NNc1ccccc1)c1ccccc1 | 314 °C | 168 °C |  |
| CC(=O)NCCO |  | 16 °C |  |
| N=C(N)NC(N)=O |  | 105 °C |  |
| Nc1ccc(N)c2ccccc12 |  | 120 °C |  |
| O=C(c1ccccc1)c1cccnc1 | 307 °C | 38 °C |  |
| CCCCCCCCOC=O | 199 °C | -39.1 °C |  |
| C=CCCCCCCCCCCCCCC | 285 °C | 4.1 °C | log10 vapour pressure (mmHg): -2.58; ready biodegradability: readily biodegradable; log10 biotransformation half-life (days): 1.67 |
| FCCl | -9.1 °C | -133 °C | log10 vapour pressure (mmHg): 3.39 |
| Cc1cc(Cl)ccc1OCCCC(=O)O |  | 100 °C | log10 Koc (L/kg): 2.73; log10 vapour pressure (mmHg): -6.36 |
| C=C(C)C(=O)OCCCCOC(=O)C(=C)C |  | 226 °C |  |
| CC1C=CC(=O)O1 (configuration not stated) | 209 °C |  |  |
| Oc1c(F)c(F)c(C(F)(F)F)c(F)c1F | 164 °C |  |  |
| Clc1cc2c(cc1Cl)Oc1cc(Cl)c(Cl)cc1O2 |  | 305 °C | log10 Koa: 10.1; log10 Koc (L/kg): 6.5; log10 vapour pressure (mmHg): -8.82; ready biodegradability: not readily biodegradable; log10 BCF: 4.99; log10 biotransformation half-life (days): 1.78 |
| CCCCCCOC(=O)c1ccccc1C(=O)OCCCCCC |  | -58 °C | log10 Koc (L/kg): 4.72; log10 vapour pressure (mmHg): -4.85 |
| ClCCCCCCCCCCl | 260 °C |  |  |
| CC(C)(C)C(=O)OC(=O)C(C)(C)C | 193 °C |  | log10 vapour pressure (mmHg): -0.356 |
| Clc1cc(Cl)c2c(Cl)c(Cl)cc(Cl)c2c1Cl |  |  | log10 Koa: 9.69; log10 vapour pressure (mmHg): -6.46 |
| CCOC(=O)Oc1c(OC)cc(C(=O)O[C@@H]2C[C@@H]3CN4CCc5c([nH]c6cc(OC)ccc56)[C@H]4C[C@@H]3[C@H](C(=O)OC)[C@H]2OC)cc1OC |  | 177 °C |  |
| C1CCCCCCC1 | 149 °C | 14.8 °C | log10 vapour pressure (mmHg): 0.741 |
| CNCC(OC)OC | 140 °C |  |  |

| Compound | boiling point | melting point | other results |
| --- | --- | --- | --- |
| CCOc1ccc(N)cc1 | 254 °C | 2.4 °C | log10 vapour pressure (mmHg): -1.98; ready biodegradability: not readily biodegradable; log10 BCF: 1; log10 biotransformation half-life (days): -1.24 |
| N#CCC(N)=O |  | 122 °C |  |
| c1ccc(-c2nnc(-c3ccccn3)nc2-c2ccccc2)cc1 |  | 192 °C |  |
| CCc1ccc(C(=O)NN(C(=O)c2cc(C)cc(C)c2)C(C)(C)C)cc1 |  | 191 °C | log10 vapour pressure (mmHg): -7.65 |
| C=C1C=CC(C(C)C)CC1 (configuration not stated) | 172 °C |  | log10 vapour pressure (mmHg): 0.2 |
| CC1(C)CCc2ccccc21 | 191 °C |  |  |
| CN(C)c1cccc(O)c1 | 266 °C | 86 °C |  |
| CC(C)(c1cc(Br)c(OCCO)c(Br)c1)c1cc(Br)c(OCCO)c(Br)c1 |  | 107 °C | ready biodegradability: not readily biodegradable |
| N#CCCCCCN | 236 °C | -31.4 °C | log10 vapour pressure (mmHg): -0.745 |
| Cc1cc(C)cc(C(=O)O)c1 |  | 171 °C |  |
| CCOP(=O)(SC(C)CC)SC(C)CC (configuration not stated) |  |  | log10 vapour pressure (mmHg): -3.05 |
| CCSc1cccc(C)c1 | 219 °C |  |  |
| CN(C)CCc1c[nH]c2cccc(OP(=O)(O)O)c12 |  | 224 °C |  |
| CC(C)NNC(C)C | 125 °C |  |  |
| Oc1ccccc1Br | 194 °C | 5.6 °C | ready biodegradability: not readily biodegradable; log10 BCF: 1.52; log10 biotransformation half-life (days): -0.24 |
| Cc1ccc(N=c2sccn2C)c(C)c1 |  | 44 °C | log10 vapour pressure (mmHg): -4.74 |
| CCCCCCCCCCCCCC(=O)OC(C)C |  | 3 °C | log10 vapour pressure (mmHg): -4.03 |
| C=CCNC(=O)NCC=C |  | 91.5 °C |  |
| ClC(Cl)C(Cl)(Cl)C(Cl)(Cl)Cl | 248 °C | 29.4 °C |  |
| c1c2c(cc3c1CCCC3)CCCC2 | 294 °C | 78 °C |  |
| CCOC(=O)OCC | 126 °C | -43 °C | log10 vapour pressure (mmHg): 1.03 |
| C[C@@H]1CC[C@H](C)c2ccccc21 | 226 °C |  |  |
| COC(=O)c1ccc(O)c(OC)c1 | 286 °C | 64 °C |  |

| Compound | boiling point | melting point | other results |
| --- | --- | --- | --- |
| CCC(Cl)(Cl)Cl | 108 °C |  | log10 vapour pressure (mmHg): 1.5 |
| CCCCCCCCCCCC(=O)CCCCCCCCCCC |  | 70.2 °C |  |
| CCCCCCC(C)(C)C | 155 °C |  |  |
| CN(CC(=O)O)N=O |  | 66.5 °C |  |
| Cc1c(N)cc([N+](=O)[O-])cc1C(N)=O |  | 199 °C |  |
| Cc1ccc2ccc(C)nc2c1 | 264 °C | 61 °C |  |
| O=C(O)c1c(Cl)cc(Cl)cc1Cl |  | 162 °C |  |
| COC(=O)N(C(=O)N1COC2(C(=O)OC)Cc3cc(Cl)ccc3C2=N1)c1ccc(OC(F)(F)F)cc1 (configuration not stated) |  | 140 °C |  |
| CCCCCC/C=C\CCCCCCCC(=O)O |  | 0.2 °C |  |
| O=C1Nc2ccccc2CCc2ccccc21 |  |  | ready biodegradability: readily biodegradable |
| CCCC(CCC)C(N)=O |  | 125 °C |  |
| Cc1csc(NS(=O)(=O)c2ccc(N)cc2)n1 |  | 237 °C |  |
| CN1CSCSC1 | 185 °C | 65 °C |  |
| COc1ccccc1[N+](=O)[O-] | 277 °C | 10.5 °C | log10 vapour pressure (mmHg): -2.44; ready biodegradability: not readily biodegradable; log10 BCF: 0.7; log10 biotransformation half-life (days): -1.04 |
| CNC[C@H](O)c1ccccc1 |  | 44 °C |  |
| CC(=O)C(C)(C)O | 140 °C |  | log10 vapour pressure (mmHg): 0.792 |
| CCCCCCCC(=O)CCCCCCC | 291 °C | 43 °C | log10 vapour pressure (mmHg): -3.39 |
| CC(C)CCCCC(C)C | 160 °C | -54.9 °C |  |
| COP(=S)(OC)SCSc1ccc(Cl)cc1 |  |  | log10 Koc (L/kg): 4.67 |
| CC(C)(Cl)CCC(C)(C)Cl |  | 67.5 °C |  |
| CCOC(=O)CCCCC(=O)OCC | 245 °C | -19.8 °C | log10 vapour pressure (mmHg): -1.24 |
| CC(C)(C)c1ccc(OC(=O)c2ccccc2O)cc1 |  | 62 °C |  |
